Assay results published in publication PMC11390726, “Automated design of multi-target ligands by generative deep learning” (Nature Communications, 2024).
pEC50, pIC50: −log10 of the molar value. Each block holds one molecule with its values, some of them ahead of it.

What was measured:
FFAR1 = target: T1, FFAR1 (Homo sapiens, UniProt O14842); set-up: method as in earlier work; details: fine-tuning set; BindingDB; read-out: potency on target (EC50 for FFAR1); cited from earlier work
T1 construct: expressed in transfected cells
T1 sequence (O14842 whole entry): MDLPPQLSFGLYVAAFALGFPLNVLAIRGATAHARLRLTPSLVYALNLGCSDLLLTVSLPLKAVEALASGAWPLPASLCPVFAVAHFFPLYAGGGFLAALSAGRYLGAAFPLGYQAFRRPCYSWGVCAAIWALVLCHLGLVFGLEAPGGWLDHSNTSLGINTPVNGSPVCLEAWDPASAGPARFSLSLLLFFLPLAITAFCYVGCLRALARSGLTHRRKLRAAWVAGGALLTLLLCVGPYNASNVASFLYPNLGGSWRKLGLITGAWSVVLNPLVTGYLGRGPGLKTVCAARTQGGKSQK

sEH [1] = test system: sEH; set-up: method as in earlier work; details: fine-tuning set; BindingDB; read-out: potency on target (IC50 for sEH); cited from earlier work
THRβ [2] = test system: THRβ; set-up: method as in earlier work; details: fine-tuning set; BindingDB; read-out: potency on target (EC50 for THRβ); cited from earlier work
FXR [3] = test system: FXR; set-up: method as in earlier work; details: fine-tuning set; BindingDB; read-out: potency on target (EC50 for FXR); cited from earlier work
FXR [4] = target: T2, FXR (Homo sapiens, UniProt Q96RI1); experiment: Gal4-hybrid reporter gene assay FXR; assay type: cell-based; details: mean, n ≥ 3
T2 construct: expressed in transfected cells; host or cells: HEK293T
T2 sequence (Q96RI1 262-486 limits assumed): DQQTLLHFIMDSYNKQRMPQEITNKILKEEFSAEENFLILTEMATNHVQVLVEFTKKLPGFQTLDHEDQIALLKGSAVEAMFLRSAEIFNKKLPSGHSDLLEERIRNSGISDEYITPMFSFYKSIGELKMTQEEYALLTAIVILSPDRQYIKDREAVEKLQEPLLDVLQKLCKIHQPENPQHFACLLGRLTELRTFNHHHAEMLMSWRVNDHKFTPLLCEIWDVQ
Protocol: The dual ligand candidates were characterized in functional assays for the targets of interest using cellular Gal4-hybrid reporter gene assays[43] to determine FXR, THRβ and PPARδ modulation and an enzyme activity assay[44] with the fluorogenic substrate PHOME to test sEH inhibition (Table 1).
After 24 h, the medium was changed to Opti-MEM without supplements. Transient transfection was performed using Lipofectamine LTX reagent (Invitrogen, Carlsbad, CA, USA) according to the manufacturer’s protocol with pFR-Luc (100 ng/well) as reporter plasmid, pRL-SV40 (2 ng/well) for normalization of transfection efficiency and cell growth, and one pFA-CMV-hNR-LBD clone coding for the hinge region and ligand binding domain (LBD) of the NR of interest. Five hours after transfection, the cells were incubated with Opti-MEM supplemented with penicillin (100 U/mL) and streptomycin (100 µg/mL), additionally containing 0.1% DMSO and the respective test compound or 0.1% DMSO alone as untreated control. After overnight (14–16 h) incubation, luminescence was measured using the Dual-Glo® Luciferase Assay System (Promega, Madison, WI, USA) according to the manufacturer’s protocol with a Tecan Spark® 10 M multimode microplate reader. Relative light units (RLU) for normalization of transfection efficiency and cell growth were calculated by dividing firefly luminescence by renilla luminescence and multiplication by 1000. Fold activation was obtained by dividing the mean RLU of a test compound at a respective concentration by the mean RLU of the untreated control. All samples were tested in duplicates in at least three biologically independent experiments. For dose response curve fitting and calculation of the EC50/IC50 values, the equation “[Agonist]/[Inhibitor] vs. response – Variable slope (four parameters)” was used in GraphPad Prism 7.

sEH [5] = target: T3, sEH (Homo sapiens, UniProt P34913); experiment: sEH enzyme activity assay with fluorogenic substrate PHOME; assay type: biochemical; details: mean, n ≥ 3
T3 construct: His tag (inferred from HisTrap purification with imidazole elution); made in house; own inference
T3 sequence (P34913 1-555): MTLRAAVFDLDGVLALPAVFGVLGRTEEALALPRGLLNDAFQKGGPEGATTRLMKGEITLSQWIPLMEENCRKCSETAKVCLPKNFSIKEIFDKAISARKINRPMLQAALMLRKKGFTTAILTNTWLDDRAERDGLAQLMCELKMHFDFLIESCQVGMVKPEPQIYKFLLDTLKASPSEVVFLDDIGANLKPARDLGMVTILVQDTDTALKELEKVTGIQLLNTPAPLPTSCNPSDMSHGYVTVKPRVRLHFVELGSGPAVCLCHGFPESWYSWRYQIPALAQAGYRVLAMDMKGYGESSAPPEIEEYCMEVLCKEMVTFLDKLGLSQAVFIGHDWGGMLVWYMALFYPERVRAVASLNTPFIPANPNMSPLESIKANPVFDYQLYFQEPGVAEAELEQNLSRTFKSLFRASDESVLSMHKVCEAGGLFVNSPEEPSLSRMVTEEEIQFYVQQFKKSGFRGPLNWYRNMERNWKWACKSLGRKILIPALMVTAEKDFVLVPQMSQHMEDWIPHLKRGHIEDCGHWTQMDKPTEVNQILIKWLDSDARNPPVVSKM
Excerpt: (§1) Compound 7 was originally designed with tert-butyloxy motif which was replaced by tert-butyl for improved chemical stability. The dual ligand candidates were characterized in functional assays for the targets of interest using cellular Gal4-hybrid reporter gene assays[43] to determine FXR, THRβ and PPARδ modulation and an enzyme activity assay[44] with the fluorogenic substrate PHOME to test sEH inhibition (Table 1). In vitro characterization of the CLM designed dual FXR/sEH modulators 1–3 confirmed engagement of both targets by all three compounds with sub-micromolar to low micromolar potencies. […] All designed PPARδ/sEH modulators (7–9) were confirmed as dual ligands of the intended targets. 7 emerged as remarkably potent sEH inhibitor endowed with micromolar PPARδ agonist activity.
Soluble epoxide hydrolase (sEH) was purified as described by Hahn et al.[68] and Lukin et al.[69], respectively. Protein expression was carried out in 500 ml ZYP5052 autoinduction medium containing Kanamycin (100 mg/L) with lactose uptake-dependent induction. The fermentation procedure started at 37 °C and 200 rpm until the OD600 reached approximately 1.0. Then the temperature was reduced to 16 °C. After 24–36 h the cells (OD600 ≈ 15.0) were harvested by centrifugation at 5000 × g (4 °C, 20 min). Pellets were resuspended in a resuspension buffer containing Tris (50 mM), NaCl (0.5 M) and MgCl2 (10 mM) at pH 8 and sonicated twice for 15 s on ice. The sonicated suspension was centrifuged (18,000 × g, 30 min, 4 °C) and the supernatant was ultracentrifuged (100,000 × g, 1 h 10 min, 4 °C). The ultracentrifugation supernatant was loaded on a 5 ml HisTrap® FF (GE Healthcare, München, Germany) column at a flow rate of 2 ml/min and washed with washing buffer containing Tris (50 mM), NaCl (0.5 M), MgCl2 (10 mM), imidazole (20 mM) and DTT (3 mM) at pH 8, and eluted at 120 mM imidazole. The fractions containing hsEH after SDS-PAGE fraction analysis were pooled. The identity of hsEH was confirmed by Western Blotting and hsEH hydrolase activity assay. The inhibitory potency of the compounds was determined using a fluorescence-based enzyme activity assay in which PHOME (3-phenyl-cyano(6-methoxy-2-naphthalenyl)methylester-2-oxiraneacetic acid) is metabolized by sEH hydrolase towards a fluorescent naphthalene aldehyde. Dilution series of the compounds were incubated for 30 min with recombinant sEH (final protein concentration 3 nM). Subsequently, the fluorogenic substrate PHOME at final concentration of 50 μM was added, and the fluorescence was measured every minute for 45 min using a Tecan plate reader (ex: 360 nm, em: 465 nm; bandwidth 35 nm). Inhibition in percent was plotted against the logarithmic test compound concentration and IC50-values were calculated using the “log(Inhibitor) vs. Response – Variable slope (four parameters)” equation in GraphPad Prism 7.

THRβ [6] = target: T4, THRβ (Homo sapiens, UniProt P10828); experiment: Gal4-hybrid reporter gene assay THRβ; assay type: cell-based; details: for THRβ agonism: at non-toxic concentrations
T4 construct: expressed in transfected cells; host or cells: HEK293T
T4 sequence (P10828 217-461 limits assumed): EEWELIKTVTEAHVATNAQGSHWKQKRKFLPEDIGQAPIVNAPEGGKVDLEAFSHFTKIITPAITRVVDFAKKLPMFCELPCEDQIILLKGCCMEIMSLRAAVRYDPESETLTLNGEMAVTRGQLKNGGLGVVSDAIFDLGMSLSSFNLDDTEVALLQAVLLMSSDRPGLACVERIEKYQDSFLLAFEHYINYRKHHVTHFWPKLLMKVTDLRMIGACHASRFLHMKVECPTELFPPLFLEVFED
Excerpt: as §1
HEK293T cells (ATCC, CRL-1573) were cultured in Dulbecco’s modified eagle medium (DMEM), high glucose, supplemented with 10% FCS, sodium pyruvate (1 mM), penicillin (100 U/mL), and streptomycin (100 µg/mL) to 70–80% confluence at 37 °C and 5% CO2 and seeded in clear 96-well plates with a density of 40,000 cells/well. After 24 h, the medium was changed to Opti-MEM without supplements. Transient transfection was performed using Lipofectamine LTX reagent (Invitrogen, Carlsbad, CA, USA) according to the manufacturer’s protocol with pFR-Luc (100 ng/well) as reporter plasmid, pRL-SV40 (2 ng/well) for normalization of transfection efficiency and cell growth, and one pFA-CMV-hNR-LBD clone coding for the hinge region and ligand binding domain (LBD) of the NR of interest. Five hours after transfection, the cells were incubated with Opti-MEM supplemented with penicillin (100 U/mL) and streptomycin (100 µg/mL), additionally containing 0.1% DMSO and the respective test compound or 0.1% DMSO alone as untreated control. After overnight (14–16 h) incubation, luminescence was measured using the Dual-Glo® Luciferase Assay System (Promega, Madison, WI, USA) according to the manufacturer’s protocol with a Tecan Spark® 10 M multimode microplate reader. Relative light units (RLU) for normalization of transfection efficiency and cell growth were calculated by dividing firefly luminescence by renilla luminescence and multiplication by 1000. Fold activation was obtained by dividing the mean RLU of a test compound at a respective concentration by the mean RLU of the untreated control. All samples were tested in duplicates in at least three biologically independent experiments. For dose response curve fitting and calculation of the EC50/IC50 values, the equation “[Agonist]/[Inhibitor] vs. response – Variable slope (four parameters)” was used in GraphPad Prism 7. The following pFA-CMV-hNR-LBD clones and reference ligands were used: THRβ (pFA-CMV-hTHRβ-LBD[71], 1 µM T3), PPARδ (pFA-CMV-hPPARδ-LBD[72], 1 µM L-165,041), FXR (pFA-CMV-hFXR-LBD[73], 1 µM GW4064).

[7] = Gal4-hybrid reporter gene assay, mean, n ≥ 3

Compound: CCOC(CC(=O)O)c1ccc(OC2CCc3c(Cl)cccc32)cc1 (stereo not shown)
- pEC50 (FFAR1): 8.30

Compound: CC#CC(CC(=O)O)c1ccc(NC(=O)C(=O)Nc2cccc(C(C)(C)C)c2)cc1 (stereo not shown)
- pEC50 (FFAR1): 8.40

Compound: CC#CC(CC(=O)O)c1ccc(OCc2cccc(CN(Cc3ccsc3)C3CCOCC3)c2)cc1 (stereo not shown)
- pEC50 (FFAR1): 8.10

Compound: CC(C)(C)N1CCOC(COc2ccc(NC(=O)NC3CCCCC3)cc2)C1 (stereo not shown)
- pIC50 (sEH [1]): 7.11

Compound: CC(C(=O)O)C(c1ccc2c(c1)OC(C1CCN(C(C)c3cc(F)ccc3OC(F)(F)F)CC1)CC2)C1CC1 (stereo not shown)
- pEC50 (FFAR1): 8.70

Compound: CC(C)c1cc(Oc2c(Cl)cc(-n3nc(C#N)c(=O)[nH]c3=O)cc2Cl)nn(C)c1=O
- pEC50 (THRβ [2]): 7.40

Compound: CC(C)c1cnn(-c2c(Cl)cccc2Cl)c1COc1ccc(C=Cc2cccc(C(=O)O)c2)c(Cl)c1
- pEC50 (FXR [3]): 7.70

Compound: CC(C)c1noc(C2CCN(C(=O)NC3CC3c3ccccc3)CC2)n1 (stereo not shown)
- pIC50 (sEH [1]): 8.22

Compound: CC(C)c1onc(-c2c(Cl)cccc2Cl)c1COc1ccc2sc(-c3cccc(C(=O)O)c3)cc2c1
- pEC50 (FXR [3]): 7.49

Compound: CC(C)n1nc(C(=O)O)cc1C1CC1c1ccc(OCc2c(-c3c(Cl)cccc3Cl)noc2C2CC2)cc1Cl (stereo not shown)
- pEC50 (FXR [3]): 8.40

Compound: CN(Cc1cccc(C(=O)O)c1)c1ccc(OCc2c(-c3c(Cl)cccc3Cl)noc2C2CC2)nc1C(F)(F)F
- pEC50 (FXR [3]): 8.05

Compound: COc1ccc(CNc2c(-c3cc(Cl)ccn3)nc3ccc(Cl)cn23)cc1
- pEC50 (FXR [3]): 9.52

Compound: COc1ccc(F)c(C2CCC(COc3cccc(C(C4CC4)C(C)C(=O)O)c3)CC2)c1 (stereo not shown)
- pEC50 (FFAR1): 8.70

Compound: Cc1c(CC(=O)O)c2ccccc2n1Cc1ccc(O)c(C(C)C)c1
- pEC50 (THRβ [2]): 6.82

Compound: Cc1cccc(C)c1OCc1noc(C(C)C)c1COc1ccc(C=Cc2cccc(C(=O)O)c2)c(Cl)c1
- pEC50 (FXR [3]): 7.25

Compound: O=C(NCc1ccc(Br)cc1OC(F)(F)F)c1ccc(OCCC(F)(F)F)nc1
- pIC50 (sEH [1]): 7.92

Compound: O=C(O)CCc1ccc(OC2CCN(C(=O)NC3C(c4ccccc4)C3c3ccccc3)CC2)cc1 (stereo not shown)
- pIC50 (sEH [1]): 8.70

Compound: O=C(O)Cc1cc(Cl)c(Oc2ccc(O)c(C(=O)NCC(c3ccccc3)c3ccccc3)c2)c(Cl)c1
- pEC50 (THRβ [2]): 9.30

Compound: O=C(O)c1ccc2nc(N3CCCC(OCc4c(-c5ccccc5OC(F)(F)F)noc4C4CC4)CC3)sc2c1 (stereo not shown)
- pEC50 (FXR [3]): 8.15

- pEC50 (FXR [4]): 6.43
- pIC50 (sEH [5]): 5.39
Compound: CC(C)(C)c1ccc(CNC(=O)c2ccc(C(=O)O)cc2)cc1 [Compound 1]

- pEC50 (FXR [4]): 6.36
- pIC50 (sEH [5]): 5.09
Compound: O=C(O)c1ccc(CNC(=O)c2ccc(-c3ccccc3)cc2)cc1 [Compound 2]

- FXR: fold act. at 50 µM (FXR [4]; at 50 µM): 3.4 fold
- pIC50 (sEH [5]): 4.68
Compound: O=C(O)c1ccc(-c2ccc(C(=O)NCc3c(Cl)cccc3Cl)cc2)cc1 [Compound 3]

- THRβ: activity (THRβ [6]; [7]): inactive
Compound: CC(C)c1onc(-c2c(Cl)cccc2Cl)c1COc1ccc(C(=O)O)cc1 [Compound 4]
- THRβ agonism (THRβ [6]): no detectable

- pEC50 (FXR [4]): 4.96
- THRβ: activity (THRβ [6]; [7]): inactive
Compound: CC(C)c1onc(-c2c(Cl)cccc2Cl)c1COc1ccc(CC(=O)O)cc1 [Compound 5]
- THRβ agonism (THRβ [6]): no detectable

- pEC50 (FXR [4]): 6.00
- THRβ: fold act. at 15 µM (THRβ [6]; Gal4-hybrid reporter gene assay, at 15 µM, mean, n ≥ 3): 5 fold
Compound: CC(C)c1onc(-c2c(Cl)cccc2Cl)c1COc1ccc(Cc2ccc(OCC(=O)O)cc2)cc1 [Compound 6]
- THRβ agonism (THRβ [6]): weak
